Consider two compounds from patent publication US8334107B2, “Detection systems utilizing supported lipid bilayers” (priority 2005, dated 2012).

One test has as its system DMPG supported on MS-PPE. The test can be described thus: Binding curves of MLT to DMPG supported on MS-PPE (superquenching flow cytometric assay). Particulars: flow cytometry, 10 μM AQS. The method, then: FIGS. 18A-B show binding curves for MLT-disruption of supported lipid bilayer by natural MLT (nMLT; FIG. 18A), and synthetic MLT (sMLT; FIG. 18B). Fluorescence intensity was normalized to that without MLT as determined by flow cytometry. The error bars represent the standard deviation (SD) of the means of normalized histograms obtained for 3 replicates.
(§1) Bead suspensions of 2.5×10^5 DMPG-coated MS-PPE in 200 μL of PBS were analyzed using a FACScan flow cytometer (Becton-Dickinson, Sunnyvale, Calif.) with excitation at 488 nm. Fluorescence signals were acquired on FL-1 channel (525 nm) using log amplification and analyzed with the CellQuest software. Kinetic analysis of disruption of supported lipid bilayer by melittin was performed by acquiring real-time data with continuous mixing of samples (10^6 MS-PPE in 800 μl of PBS) using a magnetic stirrer. The raw data were analyzed using IDL Query software developed by Bruce Edwards (Cancer Center, University of New Mexico, Albuquerque, N. Mex.).
From FIG. 18, the association constant (corresponding to the reciprocal of the point of half saturation) for nMLT and sMLT with DMPG were 5×10^6 M^−1 and 1.7×10^6 M^−1, respectively. […] Lower concentrations of nMLT, in comparison to sMLT, were required to disrupt the DMPG lipid bilayer. This might be attributed to the fact that nMLT contains some phospholipase A2 (PLA2) as a contaminant. […]
Background: Flow cytometry measures light scatter and fluorescence of single cells or particles in a stream.

Test [1] has as its system DMPG lipid bilayer on MS-PPE. The test can be described thus: Disruption of DMPG lipid bilayer on MS-PPE detected by superquenching with AQS, flow cytometry. It counts as biochemical. The method, then:
Lipid bilayers were disrupted by adding Triton X-100® detergent to the bead suspension to a final concentration of 0.25% (w/v).
Bead suspensions of 2.5×10^5 PPE-coated microspheres in 200 μL PBS were analyzed using a FACScan flow cytometer (Becton-Dickinson, Sunnyvale, Calif.) with excitation at 488 nm. Fluorescence signals were acquired on the FL-1 channel (525 nm) using log amplification and analyzed with the CellQuest software.
as §1
Because an anionic lipid was used to form a lipid bilayer around MS-PPE, it was expected that MLT will disrupt the DMPG lipid bilayer by such a detergent-like action. This was tested by adding 10 μM AQS to DMPG-coated MS-PPE followed by treatment with one of the following: Triton X-100® detergent, synthetic MLT (sMLT), or natural MLT (nMLT) and immediately reading the fluorescence by flow cytometry. […] These histograms resemble the ones reported previously for MS-PPE, without a lipid coating, in absence and in presence of AQS.
The kinetics of disruption of supported lipid bilayer by MLT were monitored by measuring real-time changes in fluorescence intensity by flow cytometry (FIG. 19). Suspensions of 10^6 DMPG-coated MS-PPE in 800 μL of PBS were treated with AQS at a final concentration of 10 μM, then with either sMLT, Triton X-100® detergent, or no treatment. […] Treatment with sMLT in the absence of AQS led to an increase in normalized fluorescence (FIG. 19, trace A). This can be attributed to disruption of the lipid bilayer by sMLT, and is consistent with a reversal of the slight quenching of fluorescence caused by the formation of a DMPG lipid bilayer over MS-PPE. Addition of AQS alone to DMPG-coated MS-PPE (FIG. 19, trace C) led to a 20% reduction in fluorescence as reported earlier. Addition of Triton X-100® detergent to DMPG-coated MS-PPE after the addition of AQS (first dip in trace E, FIG. 19) caused immediate decrease in fluorescence to ˜10% of its original value (second dip in trace E, FIG. 19). In contrast, addition of sMLT, after the addition of AQS, (FIG. 19, trace D) led to a gradual reduction of fluorescence intensity to ˜20% of the original value. Although MLT forms dimers at high concentrations (Dempsey, C. E. Biochim. Biophys. Acta 1990, 1031, 143-161), it is monomeric at the concentrations used in this study. On the other hand, Triton X-100® detergent forms micelles at the concentration used in this study.

Test [2] deals with immobilized anionic DMPG membranes. Particulars: surface plasmon resonance; cited from earlier work. (SPR reads the build-up and loss of mass on a sensor chip optically.)
For test [3], the system named is DMPG bilayer on PPE-coated beads. The test can be described thus: Microfluidic assay: detection of lipid bilayer disruption by fluorescence superquenching. It counts as biochemical. Particulars: injected as 1:1 mixture with 120 μM AQS. The method, then: The preparation of microcolumns with PPE-coated, silica beads was similar to that of with fluorescein containing beads. A 10 μL aliquot of 120 μM AQS was injected to the column. After a certain period of time, a 10 μL aliquot of 1:1 mixture of 120 μM AQS and 220 μM melittin was injected. During this process, the PPE-coated silica bead segment was irradiated at 488 nm and its fluorescence emission intensity was measured at 520 nm every 10 minutes. This experiment was repeated, while injecting 220 μM melittin first, and then 120 μM AQS.
The feasibility of using superquenching as a method of detecting membrane-toxin interactions in microcolumns was also investigated. The fluorescence intensity of the cationic polyelectrolyte poly(p-phenylene-ethynylene) polymer (PPE) can be super-quenched by the quencher 9,10-anthraquinone-2,6-disulfonic acid (AQS). […] It has been observed in flow cytometric studies that formation of DMPG membranes on PPE-coated beads will quench the PPE fluorescence to some extent. The initial rise in fluorescence intensity was probably due to the unquenching of the PPE, due to the removal of lipid bilayers from PPE-coated beads through melittin interaction, whereas the decrease in fluorescence corresponded to superquenching of PPE by AQS after disruption of DMPG bilayer by melittin. […]

Test [4] deals with 80:20 (molar ratio) DMPG and DMPC lipid bilayers on porous silica beads. The test can be described thus: Suspension study: melittin-induced release of fluorescein dye from DMPG/DMPC coated porous beads. The note with it: 220 μM melittin, 25° C., 80:20 DMPG:DMPC. The test is classed as biochemical. The method, then:
Experimental procedures were similar to the Triton X-100® detergent based analysis. For experiments with α-toxin, three different toxin concentrations: 15, 45 and 250 μg/mL were used at 37° C. and 25° C. Beads coated with EPC were used. In the experiments with melittin, 220 μM melittin was used with beads coated with either 100% EPC, 10:90 (molar ratio) mixture of DMPG and EPC or an 80:20 mixture of DMPG and DMPC. All melittin experiments were conducted at 25° C.
Previous suspension studies on disruption of lipid bilayers have been performed with small unilamellar vesicles where disruption of the lipid bilayer membranes was detected by monitoring the unquenching of a highly concentrated, encapsulated dye. In the present work disruption was monitored via release of fluorescein dye from porous beads, by measuring the increase in fluorescence intensity of the supernatant at 520 nm. Beads were first suspended in Tris buffer containing the disruptor. […] The measured portion was added back to the bead sample to permit continuous monitoring. […]
In view of the results shown in FIG. 5, the effects of melittin on other mixtures of lipids were examined. […] The increase in fluorescence intensity due to the membrane-melittin interaction, which results in the release of dye from porous beads was about 10 fold. […]

Test [5] concerns 80:20 (molar ratio) DMPG and DMPC membrane on biotin containing porous beads. The test can be described thus: Microfluidic study: detection of membrane interaction by release of reagent (biotin, ostrich quenching-unquenching). It counts as biochemical. The note with it: 20 μL of melittin (220 μM), flow ~1.2 μL/min. The method, then: A microchannel was packed with a segment (about 1 mm) of streptavidin coated beads to which a non saturating amount of fluorescein biotin had been bound. This was followed by a segment (about 1 mm) of blank silica beads and a segment (about 2 mm) of lipid coated porous beads containing biotin. The blank silica beads were served as the spacer to prevent mixing of fluorescein biotin beads with biotin encapsulated beads. Biotin (25 mM) was encapsulated (according to the same procedure for fluorescein) with a 80:20 (molar ratio) mixture of DMPG and DMPC. A […] aliquot of either 10% Triton X-100® detergent or 220 μM melittin was injected to the column. The fluorescein biotin bead segment was irradiated at 488 nm and its fluorescence emission intensity was measured at 520 nm every 10 minutes.
In this study the membrane-toxin interaction was investigated using the microcolumn system by monitoring a bimolecular reaction on downstream beads. […] The unquenching of fluorescence was the signal for the disruption. […] Introduction of free biotin displaced the fluorescein from the cis binding pocket thus unquenching the fluorescence signal. […]
20 μL of melittin (220 μM) was injected to the bead packed microchannel at 18 min. […] The initial fluorescence intensity decrease is again due to photobleaching, resulting from exposure of the fluorescein-biotin segment to the Ar ion laser. […]

A further test deals with lipid bilayer. Put plainly: Superquenching of fluorescent polymer coated lipid bilayer beads (general statement). The test is classed as biochemical. The note with it: streptolysin O with cholesterol-containing lipids, mellitin with anionic lipids. An excerpt: On the other hand, some test agents may only lead to gaps or smaller interruptions of the lipid bilayer, for example, as a result of insertion of a channel- or pore-forming proteins such as gramicidin and hemolysin. In either case, the result is either complete or partial superquenching of the fluorescent polymer. In general, non-porous beads are used for such quenching assays because the quenchable polymer is preferably coated onto the beads and is not impregnated into the beads.

As to “sMLT: synthetic melittin obtained from Sigma”, in the test with DMPG supported on MS-PPE, the “association constant (reciprocal of the point of half saturation) with DMPG” value was determined as 1.7e+06 M⁻¹. The “quenching of the MS-PPE after treatment” value in test [1] (10 μM AQS, sMLT 3.8 μM, nMLT 1.6 μM) is on record as “comparable to that occurring on addition of Triton X-100”. Further, the “fluorescence intensity, of the original value” in test [1] (real-time kinetics, added after 10 μM AQS (traces D, E)) is given as approximately 20%. Also, the association constant in test [2] is 2e+06 M⁻¹.
Turning to `CC[C@H](C)[C@H](NC(=O)CN)C(=O)NCC(=O)N[C@@H](C)C(=O)N[C@H](C(=O)N[C@@H](CC(C)C)C(=O)N[C@@H](CCCCN)C(=O)N[C@H](C(=O)N[C@@H](CC(C)C)C(=O)N[C@H](C(=O)N[C@H](C(=O)NCC(=O)N[C@@H](CC(C)C)C(=O)N1CCC[C@H]1C(=O)N[C@@H](C)C(=O)N[C@@H](CC(C)C)C(=O)N[C@H](C(=O)N[C@@H](CO)C(=O)N[C@@H](Cc1c[nH]c2ccccc12)C(=O)N[C@H](C(=O)N[C@@H](CCCCN)C(=O)N[C@@H](CCCNC(=N)N)C(=O)N[C@@H](CCCCN)C(=O)N[C@@H](CCCNC(=N)N)C(=O)N[C@@H](CCC(N)=O)C(=O)N[C@@H](CCC(N)=O)C(N)=O)[C@@H](C)CC)[C@@H](C)CC)[C@@H](C)O)[C@@H](C)O)C(C)C)C(C)C` [melittin], the “change in fluorescence intensity of bead segment” value in test [3] was “slight rise in fluorescence intensity followed by a significant decrease”. Moreover, the “increase in fluorescence intensity due to the membrane-melittin interaction” value in test [4] is “about 10 fold”. Also, the “increase in fluorescence intensity of fluorescein-biotin segment” value in test [5] is listed as “not as high as that observed for Triton X-100”. Also, in the test with lipid bilayer, the “effect on the lipid bilayer” value is recorded as “total disruption of the bilayer”.
